In patent publication US6399833B1, “Process for producing aryl vinyl sulfone solution and use thereof” (Sumitomo Chemical Company, Limited, priority 1998, dated 2002):

Tests used:
[1] = Stability of phenyl vinyl sulfone/acetonitrile solution, thermostatic bath at 40° C., analysed by gas chromatography; type: physicochemical; settings: 30% acetonitrile solution, stainless steel chip, nitrogen
Protocol: About 70 ml of a phenyl vinyl sulfone/acetonitrile solution (phenyl vinyl sulfone concentration, 30%) and a chip of stainless steel (20 mm×25 mm×2 mm) (assuming the storage in a stainless steel vessel) were put in a glass sample tube of 100 ml in volume, which was purged with nitrogen gas and then sealed with a tight stopper, followed by stability tests in a thermostatic bath at 40° C. The concentration of phenyl vinyl sulfone in the phenyl vinyl sulfone/acetonitrile solution was analyzed by gas chromatography.

[2] = Stability of phenyl vinyl sulfone solutions in various solvents, thermostatic bath at 40° C., analysed by gas chromatography; type: physicochemical; settings: for Retention in DMF solution: N,N-dimethylformamide solution (30%); for Retention in ethanol solution: ethanol solution (10%); for Retention in MIK solution: methyl isobutyl ketone solution (30%); for Retention in MTBE solution: methyl t-butyl ether solution (10%); for Retention in toluene solution: toluene solution (30%)
Protocol: About 35 ml of a phenyl vinyl sulfone solution and a chip of stainless steel (20 mm×25 mm×2 mm) (assuming the storage in a stainless steel vessel) were put in a glass sample tube of 50 ml in volume, which was purged with nitrogen gas and then sealed with a tight stopper, followed by stability tests in a thermostatic bath at 40° C. The results of retention when a toluene solution (concentration, 30%), a methyl isobutyl ketone solution (concentration, 30%), and a methyl t-butyl ether solution (concentration, 10%) were used as the phenyl vinyl sulfone solutions are shown in Table 2.
The concentration of phenyl vinyl sulfone in each solution was analyzed by gas chromatography. In the table, MIK refers to methyl isobutyl ketone; and MTBE, methyl t-butyl ether.
Stability tests were carried out in the same manner as described in Reference Example 3, except that an ethanol solution (concentration, 10%) and an N,N-dimethylformamide solution (concentration, 30%) were used as the phenyl vinyl sulfone solutions. In the table, DMF refers to N,N-dimethylformamide.

[3] = Aldrich Material Safety Data; cited from earlier work

Compound: C=CS(=O)(=O)c1ccccc1 [phenyl vinyl sulfone]
- Retention ([1]; 0 day): 100%
- Retention ([1]; 30 days): 100%
- Retention ([1]; 60 days): 99.9%
- Retention ([1]; 90 days): 99.4%
- Appearance of solution on storage ([2]; DMF solution (30%), with the lapse of storage days): yellow coloring was observed
- Retention in DMF solution ([2]; 0 day): 100%
- Retention in DMF solution ([2]; 15 days): 99.0%
- Retention in ethanol solution ([2]; 0 day): 100%
- Retention in ethanol solution ([2]; 15 days): 83.8%
- Retention in MIK solution ([2]; 0 day): 100%
- Retention in MIK solution ([2]; 15 days): 99.5%
- Retention in MTBE solution ([2]; 0 day): 100%
- Retention in MTBE solution ([2]; 15 days): 100%
- Retention in toluene solution ([2]; 0 day): 100%
- Retention in toluene solution ([2]; 15 days): 100%
- Irritation [3]: exhibit irritation
